In patent US11634425B2, “Pharmaceutical compounds” (priority 2019, dated 2023):
Read-outs that look alike come from different tables or passages of the source.

Key:
[1] = system: Hep-G2 cells; assay: Cell cytotoxicity (CC50); type: cell-based; conditions: mean of at least two experiments
Outline: (§1)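 Values are means of ≥2 independent runs, rounded to whole units, from 4-parameter variable-slope curve fits. Toxicity measured in Hep-G2 cells run alongside RSV plaque-reduction assays.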

[2] = system: RSV A2; assay: RSV plaque reduction assay; type: cell-based, respiratory syncytial virus (RSV); conditions: mean of at least two experiments
Outline: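 RSV A2 at 100 PFU/well was premixed with eight compound dilutions and added to confluent Hep-G2 monolayers for 2 h at 37 °C. Cells were then kept 2 days under a DMEM/2% FBS/0.8% CMC overlay containing compound. Immunostained plaques were counted relative to virus controls, and EC50 came from 4-parameter fits, averaged over at least two experiments.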

[3] = in vitro; type: in vitro ADME; conditions: hepatocytes, 3 μM compound, read-out: Liver Hepatocyte Stability t1/2
Protocol: Compounds were subjected to the following assays to investigate liver microsomal stability and hepatocyte stability.
Hepatocyte Incubation: Experimental Procedure
Cryopreserved pooled hepatocytes were purchased from a reputable commercial supplier and stored in liquid nitrogen prior to use. Williams E media supplemented with 2 mM L-glutamine and 25 mM HEPES and test compound (final substrate concentration 3 μM; final DMSO concentration 0.25%) are pre-incubated at 37° C. prior to the addition of a suspension of cryopreserved hepatocytes (final cell density 0.5×10^6 viable cells/mL in Williams E media supplemented with 2 mM L-glutamine and 25 mM HEPES) to initiate the reaction. The final incubation volume is 500 μL. Two control compounds were included with each species, alongside appropriate vehicle control. The reactions are stopped by transferring 50 μL of incubate to 100 μL acetonitrile containing internal standard at the appropriate time points. Samples were removed at 6 time points (0, 5, 15, 30, 45 and 60 min) over the course of a 60 min experiment. The termination plates are centrifuged at 2500 rpm at 4° C. for 30 min to precipitate the protein. Following protein precipitation, the sample supernatants were combined in cassettes of up to 4 compounds and analysed using generic LC-MS/MS conditions. From a plot of ln peak area ratio (compound peak area/internal standard peak area) against time, the gradient of the line is determined. Subsequently, half-life (t1/2) and intrinsic clearance (CLint) were calculated.

[4] = in vitro; type: in vitro ADME; conditions: microsomes, pH 7.4, 1 μM compound, 0.5 mg/mL protein, read-out: Liver Microsomal Stability t1/2
Outline: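 Pooled liver microsomes (0.5 mg/mL protein) in 0.1 M phosphate pH 7.4 with 1 μM compound and 1 mM NADPH at 37° C., sampled at 0–45 min; minus-NADPH control at 45 min. Acetonitrile quench, LC-MS/MS; t1/2 and CLint from ln peak-area ratio vs time slope.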

[5] = Cell cytotoxicity (CC50); type: cell-based; conditions: human; mean of at least two experiments
Outline: as §1

[6] = human respiratory syncytial virus, HepG2, Hep-G2 cells

| Molecule | CC50 [1] [nM] | EC50 ([2]; Hep-G2 cells) [nM] | half-life at 3 μM ([3]; dog) [h] | half-life at 3 μM ([3]; human) [h] | half-life at 3 μM ([3]; rat) [h] | half-life at 1 μM ([4]; dog) [h] | half-life at 1 μM ([4]; human) [h] | half-life at 1 μM ([4]; rat) [h] | CC50 [5] [nM] | EC50 [2, 6] [nM] |
| --- | --- | --- | --- | --- | --- | --- | --- | --- | --- | --- |
| 2-[2-Methyl-6-(propan-2-ylamino)pyridin-3-yl]-N-[(3S)-2-oxo-5-phenyl-1,3-dihydro-1,4-benzodiazepin-3-yl]pyrazolo[1,5-a]pyrimidine-3-carboxamide [Example 60] | > 25000 | 41 | – | – | – | – | – | – | – | – |
| O=C(N[C@H]1N=C(c2ccccc2)c2cccc(F)c2NC1=O)c1c(-c2ccccc2F)nn2cccnc12 [Example 3, N-[(3S)-9-fluoro-2-oxo-5-phenyl-1,3-dihydro-1,4-benzodiazepin-3-yl]-2-(2-fluorophenyl)pyrazolo[1,5-a]pyrimidine-3-carboxamide] | – | – | > 3.1 | 4.28 | 1.36 | > 2.33 | 5.5 | > 2.33 | > 25000 | 90 |
| CN1CCc2ccc(-c3nn4cccnc4c3C(=O)N[C@H]3N=C(c4ccccc4)c4ccccc4NC3=O)cc21 [Example 11, 2-(1-Methyl-2,3-dihydroindol-6-yl)-N-[(3S)-2-oxo-5-phenyl-1,3-dihydro-1,4-benzodiazepin-3-yl]pyrazolo[1,5-a]pyrimidine-3-carboxamide] | > 25000 | 89 | – | – | – | – | – | – | – | – |
| O=C(N[C@H]1N=C(c2ccccc2)c2cccc(F)c2NC1=O)c1c(-c2ccccc2F)nc2cccnn12 [Example 18, N-[(3S)-9-fluoro-2-oxo-5-phenyl-1,3-dihydro-1,4-benzodiazepin-3-yl]-2-(2-fluorophenyl)imidazo[1,2-b]pyridazine-3-carboxamide] | – | – | 2.12 | 11.6 | 1.11 | 6.9 | 12.3 | 0.838 | > 25000 | 28 |
| Cc1ccc2nc(-c3ccccc3F)c(C(=O)N[C@H]3N=C(c4ccccc4)c4cccc(F)c4NC3=O)n2n1 [Example 19, N-[(3S)-9-fluoro-2-oxo-5-phenyl-1,3-dihydro-1,4-benzodiazepin-3-yl]-2-(2-fluorophenyl)-6-methylimidazo[1,2-b]pyridazine-3-carboxamide] | – | – | > 3.1 | 2.02 | 1.6 | > 2.33 | > 2.33 | 0.477 | > 25000 | 31 |
| Cc1ccn2nc(-c3ccccc3F)c(C(=O)N[C@H]3N=C(c4ccccc4)c4cccc(F)c4NC3=O)c2n1 [Example 23, N-[(3S)-9-Fluoro-2-oxo-5-phenyl-1,3-dihydro-1,4-benzodiazepin-3-yl]-2-(2-fluorophenyl)-5-methylpyrazolo[1,5-a]pyrimidine-3-carboxamide] | – | – | 3.57 | 8.65 | 1.18 | 15 | 6.65 | 0.555 | > 25000 | 21 |
